This is an account of results in patent US20110038791A1, “METHODS FOR INHIBITING SIX1 AND EYA PROTEINS” (priority 2008, published 2011).

Where two headings read alike, the source gives them in different places.

The target of the assay is T1, human Eya2 Eya Domain (ED) (Homo sapiens, UniProt O00167).
T1 construct: a highly conserved C-terminal Eya domain (ED); made in house; host or cells: E. coli
T1 sequence (O00167 253-538 limits assumed): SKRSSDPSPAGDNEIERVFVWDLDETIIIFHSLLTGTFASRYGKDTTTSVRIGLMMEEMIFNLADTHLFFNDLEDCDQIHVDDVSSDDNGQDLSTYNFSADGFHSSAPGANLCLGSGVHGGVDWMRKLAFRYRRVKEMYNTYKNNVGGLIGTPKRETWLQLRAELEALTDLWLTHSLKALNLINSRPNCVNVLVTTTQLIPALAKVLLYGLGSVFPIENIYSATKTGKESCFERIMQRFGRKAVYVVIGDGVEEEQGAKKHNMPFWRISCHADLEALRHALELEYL
Description: Inhibition of the phosphatase activity of Eya2 Eya Domain (ED) by known phosphatase inhibitors. In kind it is biochemical. The following applies: for IC50: human Eya2 ED, FIG. 20.

[1] abbreviates: at the concentrations that typically completely inhibit their cognate phosphatases.

On to `c1cnc2c(c1)ccc1cccnc12` [(1, 10)-phenanthroline], for which, under setting [1], the “effect on ED phosphatase activity” value is on record as “no effect”.
Still for that read-out and setting: in the case of `N[C@@H](Cc1ccccc1)C(=O)O` [L-phenylalanine] it was “no effect”.
For orientation: IC50 means the point on the concentration scale where inhibition reaches its midpoint. In turn, `[Na+].[Na+].[O]=[Mo](=[O])([O-])[O-]` [Na2MoO4] showed an IC50 of 11.3 ± 1.6 mM.
Molecule `[Na+].[Na+].[Na+].[O]=[V]([O-])([O-])[O-]` [Na3VO4] came in with an IC50 of 1.8 ± 0.2 mM.
As for `C=C1[C@@H](O)[C@@H]2O[C@]3(CC[C@H](/C=C/[C@@H](C)[C@@H]4CC(C)=C[C@@]5(O[C@H](C[C@@](C)(O)C(=O)O)CC[C@H]5O)O4)O3)CC[C@H]2O[C@@H]1[C@@H](O)C[C@H](C)[C@H]1O[C@@]2(CCCCO2)CC[C@H]1C` [Okadaic acid], the “effect on ED phosphatase activity” value is listed as “no effect”.
`O=P(O)(O)OC(CO)CO` [β-glycerophosphate] registered an IC50 of 8.2 ± 2.1 mM.
Take cyclosporine A: the “effect on ED phosphatase activity” value was “no effect”.
